# From US20140234345A1, “NOVEL ANTI-CANCER ISOC[…] CONJUGATES” (priority 2011, published 2014)
# Key:
# [1] = tested on: Healthy PBMC (Peripheral Blood Mononuclear Cells); assay: Cell viability of healthy PBMC
# Experimental: (§1) All cell lines were plated in black, tissue culture treated, 96 well plates at a cell density of 1×10^5 celis/mL (1×10^4 cells/well). Cells were allowed 24 h to attach to the plate prior to being dosed with drug. […] Cells were allowed to incubate for 48 or 72 h. Following incubation cells were stained with Alamar Blue such that the final concentration of Alamar Blue in the test well was 10%. Cells were stained for 2 h and then fluorescence was measured on a Molecular Devices Analyst GT multimode plate reader using an excitation filter of 530/25 nm and an emission filter of 580/10 nm and a 561 nm dichroic mirror. Cell viability was expressed as a percentage of untreated control cells. Data are expressed as mean±standard error and are the average of four independent cell preparations.
# (§2) Healthy PBMC (Peripheral Blood Mononuclear Cells) were treated similarly to the above tumour cell line tests.
# [2] = Cell viability of healthy PBMC
# Experimental: as §1, §2
# [3] = tested on: cervical tumour cell line; assay: In vitro tumour cell line testing, cervical; assay type: cell-based; details: for effect on cervical tumour cell line: after 48 hours
# Experimental: (§3) A549 (CCL-185), BxPC-3 (CRL-1687), HeLa (CCL-2), LoVo (CCL-229), MCF-7 (HTB-22), and PC-3 (CRL-1435) cells were purchased from ATCC (Manassas, Va.). Alamar Blue was purchased from Invitrogen Canada Inc. (Burlington, ON). All other tissue culture and reagent grade materials were purchased from either VWR (Mississauga, ON) or Sigma Aldrich (Oakville, ON).
# (§4) All cell lines were maintained at 37° C. in a CO2 cell culture incubator with 5% CO2 and 95% humidity. A549, Lovo, and PC-3 cells were cultured in F-12K media, BxPC-3 cells were culture in RPMI-1640 media, and HeLa and MCF-7 cells were cultured in Eagle's Minimum Essential Media (MEM) with […]. All cell culture media was supplemented with 10% fetal bovine serum (FBS), […] Penicillin, 0.1 mg/mL Streptomycin, 2.5 μg/mL Amphotericin B, and 50 μg/mL Gentamycin. In addition, MEM media for MCF-7 cells also contained 0.01 mg/mL bovine insulin.
# [4] = Amount of I(a) dissolved in Vitamin E TPGS composition (HPLC assay of centrifugate); assay type: physicochemical; details: 15:100 w/w I(a):Vitamin E TPGS, 45° C., water 8 ml per 100 mg Vitamin E, centrifuged
# Experimental: A stir bar was then added and the solution was continuously mixed while at 45° C. for a minimum of 2 hours to allow full saturation of the product. […] The mixture was then cooled to room temperature, and centrifuged to separate the undissolved material. The centrifugate was assayed for the amount of compound I(a) using HPLC.
# [5] = tested on: lung tumour cells; assay: In vitro tumour cell line testing, lung; assay type: cell-based; details: after 72 hours
# Experimental: as §3, §4
# [6] = I(a) concentration in Cremophor EL:ethanol composition (HPLC); assay type: physicochemical; details: 1:60 w/w I(a):CrEL, ethanol 1:1 v/v to CrEL, room temperature
# Experimental: One to sixty (1:60) ratio by weight of compound I(a) to CrEL was mixed into a glass vial and stirred for about one hour at room temperature to allow solubilization. Dehydrated ethanol USP was then added at a ratio (v/v) one to one (1:1) to CrEL. The mixture was stirred for half hour to ensure the dissolution of the mixture. The final solution was then tested by HPLC to verify compound I(a) concentration.
# [7] = tested on: A549, BxPC-3, HeLa, LoVo, MCF-7 and PC-3 cells; assay: In vitro testing on various tumour cell lines (Alamar Blue cell viability); assay type: cell-based; details: after 48 hours
# Experimental: as §3, §4
# [8] = tested on: prostate tumour cell line; assay: In vitro tumour cell line testing, prostate; assay type: cell-based; details: for effect on prostate tumour cell line: after 48 hours
# Experimental: as §3, §4
# [9] = tested on: colorectal tumour cell line; assay: In vitro tumour cell line testing, colorectal; assay type: cell-based; details: for effect on colorectal tumour cell line: after 48 hours
# Experimental: as §3, §4
# [10] = tested on: pancreas tumour cell line; assay: In vitro tumour cell line testing, pancreas; assay type: cell-based; details: for effect on pancreas tumour cell line: after 48 hours
# Experimental: as §3, §4
SMILES,selectivity for cancer cells over healthy cells ([1]; PBMC tests compared to tumour cell line tests),"PBMC cell death compared to narciclasine ([1]; in DMSO, 48 and 72 hours)",viability [2] [%],viability at 2.265 µM [2] [%],effect on cervical tumour cell line [3],results on cervical tumour cells ([3]; after 72 hours),amount of I(a) contained in resultant formulation [4] [mg/mL],results on lung tumour cells [5],amount of I(a) contained in resultant formulation [6] [mg/mL],anti-cancer effect against a wide variety of cancers [7],effect on prostate tumour cell line [8],results on prostate tumour cells ([8]; after 72 hours),effect on colorectal tumour cell line [9],effect against colorectal cancer ([9]; after 72 hours),effect on pancreas tumour cell line [10],effect against pancreas cancer ([10]; after 72 hours)
"CC/C=C\C/C=C\C/C=C\C/C=C\C/C=C\C/C=C\CCC(=O)O[C@H]1C=C2c3cc4c(c(O)c3C(=O)N[C@H]2[C@H](O)[C@@H]1O)OCO4 [Compound I(a), Narciclasine 2-Hydroxy DHA Conjugate]",selectively kill cancer cells at a much higher percentage than healthy cells,small increase of cell death,~90,> 60,strong effect,good results,1.8 to 1.9,good results,9.9,strong anti-cancer effect,strong effect,good results,strong effect,works well,strong effect,works well
"O=C1N[C@@H]2C(=C[C@H](O)[C@@H](O)[C@H]2O)c2cc3c(c(O)c21)OCO3 [narciclasine, reference compound]",–,–,–,–,strong effect,–,–,–,–,strong anti-cancer effect,strong effect,–,strong effect,–,strong effect,–
